Each structure is given as a SMILES string.

This experiment in a line: Inhibition of alpha-crystallin B R120G mutant (unknown origin)-induced intracellular protein aggregation expressed in human HeLa cells or HLE-B3 cells incubated for 6 to 8 hrs by fluorescence microscopy relative to untreated control.

Usually EC50 stands for the concentration needed to bring the measured effect to its halfway point. A high value points to lower potency in that assay. Compound `C[C@H](CCCC(C)(C)O)[C@H]1CC[C@@]2(C)C3=CC[C@H]4C(C)(C)[C@@H](O)CC[C@]4(C)C3=CC[C@]12C` displayed an EC50 of 64 nM.
Next, `C[C@H](CCCC(C)(C)O)[C@H]1CC[C@@]2(C)C3=C(CC[C@]12C)[C@@]1(C)CC[C@H](O)C(C)(C)[C@@H]1CC3`: 57 nM; `C[C@H](CCCC(C)(C)O)[C@H]1CC[C@@]2(C)C3=C(CC[C@]12C)[C@@]1(C)C[C@@H](F)[C@@H](O)C(C)(C)[C@@H]1CC3`: 26 nM; `C[C@H](CCCC(C)(C)O)[C@H]1CC[C@@]2(C)C3=C(CC[C@]12C)[C@@]1(C)C[C@@H](F)[C@H](O)C(C)(C)[C@@H]1CC3`: 18 nM.
Next, `C[C@H](CCCC(C)(C)O)[C@H]1CC[C@@]2(C)C3=C(CC[C@]12C)[C@@]1(C)CCC(=O)C(C)(C)[C@@H]1CC3`: 106 nM.
In the case of `C[C@H](CCCC(C)(C)O)[C@H]1CC[C@H]2[C@@H]3CC=C4C[C@@H](O)CC[C@]4(C)[C@H]3CC[C@]12C` [(1S,2R,5S,10S,11S,14R,15R)-14-[(2R)-6-hydroxy-6-methylheptan-2-yl]-2,15-dimethyltetracyclo[8.7.0.0^{2,7}.0^{11,15}]heptadec-7-en-5-ol], the concentration for a half-maximal effect (EC50) was found to be 320 nM.
The figure for `CC(C)=CCC[C@@H](C)[C@H]1CC[C@@]2(C)C3=C(CC[C@]12C)[C@@]1(C)CC[C@H](O)C(C)(C)[C@@H]1CC3` [LANOSTEROL] is 1420 nM.

Values taken from BindingDB's records for doi:10.1021/acs.jmedchem.8b00705 (Zhejiang University, 2018).
